Results on four molecules are retold here after US4562183A, “Perfluoro-1-azabicyclo(5,3,0)decane compounds useful as blood substitutes” (I.S.C. Chemicals Limited, priority 1982, dated 1985).

Data set [1] is described as follows: Solubilities at 25° C. of perfluoro-1-azabicyclo(5,3,0)decane in solvents. It counts as physicochemical. From the text: Solubility of perfluoro-1-
azabicyclo(5,3,0)decane in […]

Data set [2] is described as follows: Oxygen solubility in fluorocarbon. It counts as physicochemical. The settings on record: oxygen-saturated at 20° C.; corrected for vapour pressure of fluorocarbon. As to the method: A portion of 20 ml. of ABCD was degassed by boiling and cooled to 20° C. while being bubbled with oxygen gas. The oxygen-saturated liquid was then degassed under vacuum and the gas evolved was collected and its volume measured at a known temperature and pressure. After allowing for the vapour pressure of the fluorocarbon, the solubility of oxygen was calculated to be in the range 45±10 mls of O2 (at 760 mm Hg & 0° C.) per 100 ml. of fluorocarbon. The solubility of oxygen in ABCD is thus adequate to permit the use of this fluorocarbon as an oxygen carrier for medical use.

Data set [3] is described as follows: Emulsion forming capacity with Pluronic F68, standing overnight. It counts as physicochemical. The settings on record: for Emulsification time to form emulsion: Pluronic F68 in deionised water, high speed mixer; for Separation (creaming) of the emulsion: standing at room temperature overnight, Pluronic F68. As to the method:
To 10 ml. of perfluoro-1-azabicyclo(5,3,0)decane (ABCD) was added 10 ml. of solution made by dissolving 8.0 g of a non-ionic, polyoxyethylene-polyoxypropylene surfactant ('Pluronic F68', RTM) in 220 ml. of deionised water. The mixture was emulsified for a few minutes using a high speed mixer to form an emulsion having the appearance of diluted milk.
In a comparison test, an emulsion was formed using perfluorodecalin. An emulsion of similar appearance to that formed with ABCD required about 10 minutes emulsification.

The nature of data set [4]: Retention in body organs with time (gas chromatography). The conditions noted are these: rat, 0.32 mL/100 g, 0.32 ml. fluorocarbon per 100 gm body weight; for concentration at 120 h: 5 Days; for concentration at 168 h: 7 Days (Av. of 2); for concentration at 240 h: 10 Days; for concentration at 504 h: 21 Days. It counts as in vivo, rats. As to the method:
4. RETENTION OF PERFLUORO-1-AZABICYCLO(5,3,0)DECANE BODY ORGANS WITH TIME
Gas chromatography results--rats injected with emulsion of ABCD (0.32 ml. fluorocarbon per 100 gm body weight). The following residual fluorocarbon concentrations were observed. (In mg. fluorocarbon/gm tissue).

Data set [5] can be described thus: Stability of emulsion with yolk phospholipids. It is filed as physicochemical. The settings on record: heating at 100° C. for 30 minutes and storage at 4° C. and 25° C. for 2 weeks. As to the method:
In order to evaluate the feasibility of emulsification, ABCD was emulsified with yolk phospholipids by using a Manton-Gaulin homogenizer and the stability to heating at 100° C. for 30 minutes and storage at 4° C. and 25° C. for 2 weeks were examined.

Data set [6] in a line: Excretion rate from the organs. It is filed as in vivo, rats. The protocol:
(§1) ABCD was evaluated as candidate for an artificial blood substitute from the aspects of toxicity, feasibility of emulsification and excretion rate from the organs.

A short description of data set [7]: Toxicity: weight gain of rats administered emulsion. It counts as in vivo. The settings on record: Wistar strain male rats, ABCD emulsion, 4 g/kg as ABCD. The protocol:
as §1

The conditions of data set [8]: aqueous media; cited from earlier work.
Data set [9] is described as follows: Base stability of fluorination product. It counts as physicochemical.
For data set [10] the following is noted: in vivo; cited from earlier work.
[11] abbreviates: heart, read-out: Residual fluorocarbon concentration, heart.
Setting [12] is: kidney, read-out: Residual fluorocarbon concentration, kidney.
Where [13] appears, read: liver, read-out: Residual fluorocarbon concentration, liver.
[14] abbreviates: lung, read-out: Residual fluorocarbon concentration, lung.
Setting [15] is: spleen, read-out: Residual fluorocarbon concentration, spleen.

Like-named read-outs stand apart in the source and are kept apart here.

`FC1(F)N2C(F)(F)C(F)(F)C(F)(F)C2(F)C(F)(F)C(F)(F)C(F)(F)C1(F)F` (stereo not shown) [ABCD, perfluoro-1-azabicyclo(5,3,0)decane] had a Solubility in acetone in data set [1] (acetone) of 6.84 g in 100 g solvent. Further, the Solubility in hexane entry in [1] (hexane) was “miscible”. The Solubility in methanol in data set [1] (methanol) is 1.36 g in 100 g solvent. In addition, the Solubility in trichloro-trifluoroethane result in data set [1] (trichloro-trifluoroethane) is “miscible”. The Solubility in water result in data set [1] (water) is on record as “hardly soluble”. The Solubility of oxygen in [2] is recorded as 45±10 mls of O2 (at 760 mm Hg & 0° C.) per 100 ml. of fluorocarbon. The “Emulsification time to form emulsion” value in [3] is on record as “a few minutes”. Moreover, the “Separation (creaming) of the emulsion” value in [3] is “minor amount of separation ('creaming')”. Besides, the concentration at 120 h was determined as 130000 ng/g in data set [4] (setting [11]); 170000 ng/g in data set [4] (setting [12]); 1.18e+07 ng/g in data set [4] (setting [13]); 560000 ng/g in data set [4] (setting [14]); 4.35e+07 ng/g in data set [4] (setting [15]). Further, the concentration at 168 h came out at 450000 ng/g in data set [4] (setting [11]); 100000 ng/g in [4] (setting [12]); 6.73e+06 ng/g in data set [4] (setting [13]); 100000 ng/g in data set [4] (setting [14]); 2.23e+07 ng/g in data set [4] (setting [15]). For the same molecule, the concentration at 240 h amounted to 260000 ng/g in [4] (setting [11]); 190000 ng/g in [4] (setting [12]); 2.51e+06 ng/g in [4] (setting [13]); 160000 ng/g in data set [4] (setting [14]); 1.2e+08 ng/g in [4] (setting [15]). Also, the concentration at 336 h in data set [4] (14 Days (* not Av. of 2), spleen, read-out: Residual fluorocarbon concentration, spleen) was 3.69e+06 ng/g; in data set [4] (14 Days (Av. of 2), heart, read-out: Residual fluorocarbon concentration, heart), 180000 ng/g; in data set [4] (14 Days (Av. of 2), kidney, read-out: Residual fluorocarbon concentration, kidney), 150000 ng/g; in [4] (14 Days (Av. of 2), liver, read-out: Residual fluorocarbon concentration, liver), 380000 ng/g; in data set [4] (14 Days (Av. of 2), lung, read-out: Residual fluorocarbon concentration, lung) it was 150000 ng/g. Besides, the concentration at 504 h in [4] (setting [11]) stood at 160000 ng/g; in data set [4] (setting [12]), 160000 ng/g; in [4] (setting [13]), 40000 ng/g; in data set [4] (setting [14]), 150000 ng/g; in [4] (setting [15]), 1.12e+06 ng/g. Besides, the Stability of emulsion result in [5] is given as “acceptably stable”. For the same molecule, in data set [6] (2 weeks after injection), the “Amount detected in all organs” value was “only trace amounts”. Further, in data set [6] (after injection), the “Elimination from the organs” value is “very rapidly eliminated from the organs”. In data set [7], the Weight gain entry is “gained weight favourably”.
Consider `FC1(F)C(F)(F)C(F)(F)C2(F)C(F)(F)C(F)(F)C(F)(F)C(F)(F)C2(F)C1(F)F` (stereo not shown) [perfluorodecalin, reference compound], for which, in data set [3], the “Emulsification time to form emulsion” value was “about 10 minutes” and the “Separation (creaming) of the emulsion” value was “pronounced creaming”. Also, the Emulsion stability result in data set [8] was “does not easily give a stable emulsion in aqueous media”.
On to `FC(F)(F)C1(F)N2C(F)(F)C(F)(F)C(F)(F)C2(F)C(F)(F)C(F)(F)C(F)(F)C1(F)F` (stereo not shown) [perfluoro-1-aza-2-methyl(5,3,0)decane], for which, in [9], the Stability to base entry is given as “base-stable”.
`FC(F)(F)C(F)(F)C(F)(F)N(C(F)(F)C(F)(F)C(F)(F)F)C(F)(F)C(F)(F)C(F)(F)F` [perfluorotripropylamine]: the “Retention time in the body” value in [10] is reported as “longer retention time in the body”. The Emulsion stability result in [8] was “gives a more stable emulsion than perfluorodecalin”.
